Values belong to the compound of their own block, whether it stands above or below them. Where a SMILES comes first, the peptide text is derived from it. The star is where a group is joined. Cbz = O=C(OCc1ccccc1)*; OtBu = CC(C)(C)O*
Tests used:
[1] = Mundy GR et al, 2005; cited from earlier work
Smads = details: Ito y et al, 2011; cited from earlier work
20 S proteasome = 20 S proteasome (Rattus norvegicus, UniProt P28075); assay: 20 S proteasome activity assay in calvarial osteoblast cells; details: for inhibition of 20 S proteasomal activity: calvarial osteoblast cells
[2] = system: Mice Calvarial osteoblasts (MCOs); assay: Quantitative real time PCR of osteogenic genes in MCOs; assay type: cell-based; details: 10 nM
Experimental: Cells were homogenized using 1 ml of TRIzol reagent (Invitrogen, Carlsbad, Calif., USA), and total RNA was extracted according to the manufacturer's protocol. cDNA was synthesized using RevertAid™ First Strand cDNA synthesis kit (#K1621 Fermentas, Canada) from 1 μg of total RNA. Quantitative real time PCR amplifications were performed in The LightCycler® 480 Real-Time PCR System (Roche Diagnostics, USA) using LightCycler SYBR Green (Roche Diagnostics, USA) according to the manufacturer's instruction. The sequences of primer sets for Smurf1, Smurf2, RunX2, BMP-2, alkaline phosphatase (ALP), osteocalcin (OCN), Collagen I (Coll) and GAPDH mRNAs, target sites on mRNAs and product sizes by PCR are shown in FIG. 6. The quantity of each sample was normalized using the CT (threshold cycle) value obtained for the GAPDH mRNA amplifications.

[3] = system: Mice Calvarial osteoblasts (MCOs); assay: Alkaline phosphatase (ALP) assay in mice calvarial osteoblasts; assay type: cell-based; details: for ALP production / ALP activity compared with control: osteoblast differentiation medium, 1 pM to 1 μM; for dose most effective in stimulating ALP activity: dose range 1 pM to 1 μM
Experimental: For each experiment, 1 to 2 day old […] were used to harvest 20 to 35 calvaria at room temperature (25° C.). Briefly, individual calvaria were surgically isolated from the skull, the sutures were segregated, and the adherent tissue material was cleaned by gentle scrapping. As described previously, the pooled calvarias were kept for repeated digestion (15 minutes/digestion) with 0.05% trypsin and 0.1% collagenase P to release the cells. First digestion was discarded and cells were collected from the next four digestions. These cells were cultured in a modified essential medium (a-MEM) containing 10% fetal calf serum (FCS) and 1% penicillin/streptomycin (complete growth medium). Cultures of MCOs were allowed to reach 80% confluence for the experiments.
For the measurement of ALP activity, MCOs at approximately 80% confluence were trypsinized, and 2×10^3 cells/well were seeded onto 96-well plates. […] At the end of incubation period, total ALP activity was measured using p-nitrophenylphosphate (PNPP) as substrate, and absorbance was read at 405 nm.

[4] = system: serum osteocalcin in OVx mice; assay: Bone turnover marker, serum osteocalcin EIA; assay type: in vivo; details: 60 days, vs OVx+vehicle
From the text: Rat-MID™ Osteocalcin EIA (Immunodiagnostic, UK) performed using serum from treated and vehicle groups using manufacturer's protocol as provided in the kit.

[5] = system: Mice primary osteoblast cells; assay: Cell proliferation assay (direct cell count and BrdU); assay type: cell-based; details: 24 h
Experimental: Mice primary osteoblast cells were plated at a density of 2.5×10^5 cells/ml/well in 12 well plates at 37° C. […] The cells were trypsinized and viable cells were counted with a hemocytometer using trypan blue dye exclusion. Cell counts were performed in duplicate and repeated in three cultures. […] Cell proliferation was determined using BrdU ELISA (from Calbiochem, Darmstadt, Germany) using manufacturer's instructions. For the last 3h of the 24 h stimulation, the, cells were trypsinized and 2000 cells/well were seeded in a-MEM supplemented with 10% fetal bovine serum, and the cells were pulsed with BrdU. Absorbance at dual wavelength of 450-540 nm was measured with a microplate reader.

Mouse bone marrow cells = assay: Osteoclast culture, real-time expression of TRAP and RANK; assay type: cell-based; details: bone marrow cultures with MCSF and RANKL, 6 days, vs control vehicle
Experimental: In vitro osteoclastogenesis was performed using standard protocol. Mouse bone marrow cells were flushed from femur using alpha-MEM. Cells were seeded in flask overnight in Osteoclast medium (alpha MEM, 10% FCS, antibiotic, EBSS, 10 ng/ml MCSF). […] The medium was replaced after every 48 hours. After 6 days of culture, the cells were washed with PBS and then fixed in 4% paraformaldehyde or used for RNA extraction using TRIZOL for analysis of TRAP, RANK mRNA levels by real-time PCR. Fixed cells were followed by TRAP staining using the standardized protocol.

[6] = system: drill-hole injury in femur of Sham and OVx Balb/c mice; assay: Fracture healing drill-hole study; assay type: in vivo
From the text: Sixty adult Balb/c mice (18-20 g each) were taken and divided into six groups of […] for the study. Each group included 12 animals per group. […] Mice were left for 8 weeks for the OVx mice to develop osteopenia. After 8 weeks, drill-hole injury was created in both sham and OVx groups. In mid femur region the front skin was incised straight and longitudinally 1 cm in length under anesthetic condition. After splitting the muscle, periosteum was stripped to expose the femoral bone surface. A drill-hole injury was made, 1 cm above the knee joint by inserting a drill bit with a diameter of 0.1 mm in the anterior portion of the diaphysis of the bilateral femurs. […] Each animal received intraperitoneal administration of fluorochrome calcein (20 mg·kg^−1) 24 h before autopsy. After 21 days of treatment as described above, all mice were euthanized and autopsied to collect their femurs for the measurement of bone micro architectural parameters at the drill hole site. Bones were embedded in acrylic material and 50 μm sections were made using an Isomet BoneCutter (Buehler, Lake Bluff, Ill. USA) and photographs were taken under confocal microscope LSM 510 Meta, Carl Zeiss, USA) aided with appropriate filters. The intensity of calcein binding, which is an indicator of the amount of new mineral deposition, was calculated using Carl Zeiss A M 4.2 image-analysis software.

[7] = system: Mice calverial osteoblast; assay: Apoptosis assay (Annexin V/PI, FACS) in serum deprived MCOs; assay type: cell-based; details: 10 nM, 24 h
Experimental: Annexin V/PI staining for fluorescence-activated cell sorting (FACS) analysis was carried out using Calbiochem Annexin V-FITC Apoptosis Detection Kit (Calbiochem, USA) according to manufacturer's instructions.

[8] = system: Ovariectomized (OVx) Mice; assay: In vivo efficacy of WFA on ovariectomized (OVx) mice, μCT; set-up: species or system Balb/c mice; details: doses 1, 5 and 10
Experimental: The intraperitoneal dose for iPTH (40 μg·kg^-1 for 3 days/week) used in this study as known anabolic agent. […] For dynamic histomorphometry measurements each animal was administered intraperitoneally with fluorochromes tetracycline (20 mg·kg^-1) on day 30 […] and calcein (20 mg·kg^-1) on day 60 (8 weeks) after the commencement of various treatments. After 8 weeks of treatment, all mice were euthanized and autopsied to collect bones (i.e., tibias and femurs) for measurement of bone parameter. […] BMCs were cultured in bone marrow differentiation medium to induce mineralization for 18 days. Mineralization was quantified as described. Alizarin red S stain was used for staining mineralized nodules, followed by extraction of the stain for quantification. […] The plasma samples were analyzed by HPLC according to reported method with slight modification. Sky Scan 1076 μCT scanner (Aartselaar, Belgium) was used to carryout μCT scanning of excised bones as described before. The bone samples were scanned at a resolution of 9 μm and reconstruction was done using the Sky Scan Nrecon software. The X-ray source was set at 50 kV and […], with a pixel size of 9 μm. A hundred projections were acquired over an angul arrange of 180°. […] Trabecular thickness (Tb.Th) and structure mode index (SMI) was calculated according to the method of Hildebrand and Ruegsegger. […]

uterus of OVx mice = assay: Estrogenicity studies (uterine weight); assay type: in vivo; details: all doses
Experimental: The uterus of each mouse was weighed and then fixed in 4% paraformaldehyde. A middle segment of each uterus was dehydrated in ascending grades of isopropanol, cleared in xylene and sections of about 5 μm thickness was prepared. Haematoxylin and eosin staining was done of 5 μm transverse sections and representative images were captured. Leica Qwin-Semiautomatic Image Analysis software (Leica Microsystems GmbH) was used to measure total uterine area, luminal area and luminal epithelial height.

[9] = system: Mice Calvarial osteoblasts (MCOs); assay: Mineralization assay (Alizarin red-S); assay type: cell-based; details: 10 nM, 21 days, vs control group
Experimental: Mineralization assay was carried out to assess the mineralizing ability and thus bone formation of osteoblasts cells. […] At the end of the experiment, the cells were washed with PBS and fixed with paraformaldehyde (4%) in PBS for 15 minutes. Alizarin red-S stain was used for staining mineralized nodules, followed by extraction of the stain using 10% acetic acid and 10% ammonium hydroxide for colorimetric quantification at 405 nm.

Structure (SMILES): CC[C@H](C)[C@H](NC(=O)OCc1ccccc1)C(=O)N[C@@H](CCC(=O)OC(C)(C)C)C(=O)N[C@@H](C)C(=O)N[C@H](C=O)CC(C)C [PSI] (Cbz-IE(OtBu)AL-aldehyde)
Activity: bone volume and bone formation rate [1]: Increases bone

Structure (SMILES): CC(=O)N[C@@H](CSC(=O)[C@]1([C@@H](O)C(C)C)NC(=O)[C@H](C)[C@@H]1O)C(=O)O [Lactacystin, reference compound]
Activity: activity of Smads (in vitro) (Smads): Increases
inhibition of 20 S proteasomal activity (20 S proteasome): significantly inhibits the 20 S proteasomal activity

Structure (SMILES): CC1=C(C)C(=O)O[C@@H]([C@@H](C)[C@@]2(O)CC[C@H]3[C@@H]4[C@@H]5O[C@@H]5[C@@]5(O)CC=CC(=O)[C@]5(C)[C@H]4CC[C@@]32C)C1 [WN, Withanone]
mRNA expression of collagen I [2]: stimulated mRNA expression of collagen I
ALP production / ALP activity compared with control ([3]; 48 h): did not stimulate ALP activity significantly
dose most effective in stimulating ALP activity [3]: 10 nM

Structure (SMILES): CC[C@H](C)[C@H](NC(=O)[C@H]([C@@H](C)CC)N(C)C(C)=O)C(=O)N[C@H](C(=O)N[C@@H](CC(C)C)C(=O)[C@@]1(C)CO1)[C@@H](C)O [Epoxomicin]
Activity: bone volume and bone formation rate [1]: Increases bone

Structure (SMILES): CC1=C(CO)C(=O)O[C@@H]([C@@H](C)[C@H]2CC[C@H]3[C@@H]4C[C@H]5O[C@]56[C@@H](O)C=CC(=O)[C@]6(C)[C@H]4CC[C@]23C)C1 [WFA, Withaferin A]
serum osteocalcin (OCN) levels [4]: significant reduction in the levels of OCN
concentration that maximally stimulated MCO proliferation [5]: 10 nM
osteoblast proliferation (direct cell count and BrdU incorporation) ([5]; vs control vehicle set as 100): concentration dependently stimulated osteoblast proliferation
mRNA expression of collagen I [2]: stimulated mRNA expression of collagen I
expression of osteogenic genes RunX2, OCN and Col I ([2]; normalized to GAPDH): increased expression of RunX2, OCN and Col I
ALP activity compared to Bortizomib ([3]; 10 nM, 48 h): ~3 fold
ALP production / ALP activity compared with control ([3]; 48 h): significantly increased ALP production
dose most effective in stimulating ALP activity [3]: 10 nM
mRNA levels of TRAP and RANK (Mouse bone marrow cells): significantly reduced mRNA levels of TRAP and RANK
callus mineralization / bridging of defect ([6]; 5 mg kg-1 d-1, after day 11 post drilling): predominantly occupied mineralized callus, and the defect region was partially bridged
callus mineralization / bridging of defect ([6]; 10 mg kg-1 d-1, compared with 5 mg kg-1 d-1): more increased mineralized callus within the intra medulla region to be remodeled to completely bridge the defect
mineral deposition (intensity of calcein labeling in the drill hole) ([6]; 5 and 10 mg kg-1 d-1, 21 days, vs vehicle): increased mineral deposition
mineral deposition in OVx mice ([6]; OVx mice, 5 and 10 mg kg-1 d-1, vs OVx vehicle): increased mineral deposition in OVx mice
apoptotic cells (early and late) ([7]; serum deprived (0.5% FBS) MCOs): 3%
most effective dose (BV/TV, inter-dose comparison) [8]: 10 mg/kg/day
uterine weight (uterus of OVx mice): uterine weight comparable to OVx group
earliest time of inhibition of proteasomal 20 S subunit activity (20 S proteasome; 10 nM): 3 h
maximum inhibition of proteasomal 20 S subunit activity (20 S proteasome; 10 nM, at 6 h, compared with positive control): 40-50%
mineralization (Alizarin-S dye extraction) [9]: significant increase in mineralization

Structure (SMILES): CC1=C(C)C(=O)O[C@@H]([C@](C)(O)[C@H]2CC[C@H]3[C@@H]4[C@@H]5O[C@@H]5[C@@]5(O)CC=CC(=O)[C@]5(C)[C@H]4CC[C@]23C)C1 [WNA, Withanolide A]
mRNA expression of collagen I [2]: stimulated mRNA expression of collagen I
ALP production / ALP activity compared with control ([3]; 48 h): significantly increased ALP production
dose most effective in stimulating ALP activity [3]: 10 nM

inhibition of 20 S proteasomal activity (20 S proteasome): comparable to Bzb
Structure (SMILES): CC(C)C[C@H](NC(=O)[C@H](Cc1ccccc1)NC(=O)c1cnccn1)B(O)O [Bzb, Bortezomib, reference compound]
apoptosis of serum deprived MCOs ([7]; 0.5% FBS): comparable to standard control Bortizomib (Bzb)
mineralization (Alizarin-S dye extraction) [9]: comparable to Bzb treatment

Reference: patent US10596115B2, “Pharmaceutical composition for the treatment of diminution of bone tissue” (Council of Scientific & Industrial Research, priority 2013, dated 2020)
